{"source": "patent US10487056B2", "about": "“Small molecule androgen receptor inhibitors and methods of use thereof” (GEORGETOWN UNIVERSITY, priority 2015, dated 2019)", "type_in_all_cases": "cell-based", "key": {"hTERT promoter": {"tested_on": "hTERT promoter", "assay": "hTERT promoter-luciferase reporter in 22Rv1 cells", "details": "2.5 μM, 24 hours", "description": "(§1) 22Rv1 cells were transfected with hTERT promoter-luciferase reporter construct and Renilla luciferase plasmids (pRL-TK-Luc) and treated with 2.5 μM of SH-I-125 for 24 hours. Promoter activity was determined after normalization with Renilla luciferase activity. Columns, mean of three independent experiments with quadruplicate samples; bars, SEM."}, "[1]": {"tested_on": "estrogen response element", "assay": "Estrogen response element (ERE) luciferase reporter in 22Rv1 cells", "details": "1 μM, 24 hours", "description": "as §1, with “ERE” for “hTERT”, “1” for “2.5”"}, "PrEC": {"tested_on": "PrEC", "assay": "Live and dead cell staining, PrEC cells", "details": "SH-I-125 5 μM, 3 days", "description": "Live and dead cells were determined using a Cell Viability/Cytotoxicity Assay kit (Biotium Inc.; Hayward, Calif.).\nTo determine the effects of SH-I-125 on prostate cancer cell growth, 22Rv1 cells were treated with SH-I-125 and cell viability was measured after a period of 3 days. […]. In comparison, non-tumorigenic primary prostate epithelial cells (PrEC) retained 80% viability in the presence of a similar range of doses of SH-I-125, showing that tumorigenic cells are more susceptible to the growth inhibitory properties of SH-I-125 compared to non-tumorigenic cells (FIG. 8B). […] Staurosporine was used as a positive control for cell death induction in live and dead assays (FIG. 9C)."}, "AR and AR-V7": {"tested_on": "AR and AR-V7", "assay": "Western blot of AR and AR-V7 levels in 22Rv1 cells", "description": "AR levels were assessed by Western blotting. β-actin was used as a loading control.\n(§2) AR and AR-V7 levels were assessed. β-actin was used as a loading control.\nas §2\nMG132 (5 μM), a known proteasome inhibitor, was added on Day 2. AR expression was assessed by Western blotting. β-actin was used as a loading control."}, "VCaP-MDVR cells [2]": {"tested_on": "VCaP-MDVR cells", "assay": "Cell viability (MTT), VCaP-MDVR cells", "details": "MDV3100, ARN-509 10 μM, SH-I-125 range, 3 days", "method": "(§5) Cell viability was measured using the MTT assay.\n(§6) Cells were treated in the manner indicated below for the specified period of time."}, "22Rv1-MDVR cells": {"tested_on": "22Rv1-MDVR cells", "assay": "Cell viability (MTT), 22Rv1-MDVR cells", "details": "MDV3100, ARN-509 10 μM, SH-I-125 range, 3 days", "method": "as §5, §6"}, "VCaP-MDVR cells [3]": {"tested_on": "VCaP-MDVR cells", "assay": "Caspase-Glo 3/7 activity assay, VCaP-MDVR cells", "details": "SH-I-125 1 μM, 3 days", "description": "Caspase 3/7 activity was measured using Caspase-Glo 3/7 substrates. Data represent mean of three independent experiments with quadruplicate samples; bars, SEM.\nThe emergence of resistance to clinical anti-androgens is an ongoing problem in the treatment of castration-resistant prostate cancer."}, "AR [4]": {"tested_on": "AR", "assay": "VCaP-MDVR-ARE-luc luciferase reporter assay", "details": "VCaP-MDVR-ARE-luc cells, range of doses, 24 hours", "description": "(§3) […]. Luciferase activity was measured and plotted as a percentage of control. Data represent the mean of three independent experiments with quadruplicate samples; bars, SEM. ***, p value <0.001 determined by ANOVA.\n(§4) VCaP-MDVR and 22Rv1-MDVR stably expressing ARE-luciferase construct (VCaP-MDVR-ARE-luc and 22Rv1-MDVR-ARE-luc) were generated as described above in the Materials and Methods section. […]."}, "AR [5]": {"tested_on": "AR", "assay": "22Rv1-MDVR-ARE-luc luciferase reporter assay", "details": "22Rv1-MDVR-ARE-luc cells, range of doses, 24 hours", "description": "as §3, §4"}, "AR [6]": {"tested_on": "AR", "assay": "Immunofluorescence staining of AR and PSA in VCaP-MDVR cells", "details": "DHT 1 nM, MDV3100 10 μM or SH-I-125 1 μM, 24 hours", "description": "AR and PSA expression levels were assessed.\nImmunofluorescence staining was performed as described in Amin et al., Mol. Cancer Ther., 13:341-52 (2014)."}}}
{"smiles": "COc1ccc2c(c1)[nH]c1c(C)c(OS(=O)(=O)c3cccc4ccccc34)ccc12", "note": "[SH-I-125, 7-methoxy-1-methyl-9H-carbazol-2-yl naphthalene-1-sulfonate]", "values": [{"measurement": "hTERT promoter-luciferase activity", "setting": "hTERT promoter", "result": "unaffected"}, {"measurement": "ERE promoter-luciferase activity", "setting": "[1]", "result": "unaffected"}, {"measurement": "live and dead cell staining", "setting": "PrEC", "result": "mostly unaffected"}, {"measurement": "cellular AR and AR-V7 levels", "setting": "AR and AR-V7; 3 days, SH-I-125 at 1 μM", "result": "reduced AR and AR-V7 levels"}, {"measurement": "AR and AR splice variant levels in the presence of proteasome inhibitor MG132", "setting": "AR and AR-V7; SH-I-125 plus MG132", "result": "Proteasome inhibition rescued the decline"}, {"measurement": "cell growth / viability", "setting": "VCaP-MDVR cells [2]", "result": "effective in preventing the growth"}, {"measurement": "cell growth / viability", "setting": "22Rv1-MDVR cells", "result": "effective in preventing the growth"}, {"measurement": "caspase 3/7 activation", "setting": "VCaP-MDVR cells [3]", "result": "inducing caspase activation"}, {"measurement": "inhibitory effect on AR activity (luciferase)", "setting": "AR [4]", "result": "retained its inhibitory effect"}, {"measurement": "luciferase activity (AR activity)", "setting": "AR [5]", "result": "retained its inhibitory effect"}, {"measurement": "AR expression / nuclear localization", "setting": "AR [6]", "result": "decreased AR nuclear localization"}, {"measurement": "PSA expression", "setting": "AR [6]", "result": "decreased AR nuclear localization and PSA expression"}]}
